According to patent US10239871B2, “Compounds and methods for regulating integrins” (ADHAERE PHARMACEUTICALS, INC., priority 2012, dated 2019):

What was measured:
[1] = target: T1, CD11b/CD18 (Mus musculus, UniProt P05555); test: Cell adhesion assay, RAW 264.7 cells on immobilized fibrinogen; format: cell-based, murine; conditions: vs basal 1 mM Ca2+ and Mg2+
T1 construct: that have constitutive CD11b/CD18 surface expression were used; host or cells: RAW 264.7 murine macrophage cell line
Method: (§1) K562 cells stably transfected with plasmid encoding wild-type integrin CD11b/CD18 (K562 WT cells) have been described previously and were maintained in Iscove's Modified Dulbecco's Medium (IMDM) supplemented with 10% FBS and G418 (0.5 mg/ml). The murine macrophage cell line (RAW 264.7 cells) was obtained from ATCC and the cells were maintained in DMEM supplemented with 10% heat-inactivated FBS according to the manufacturer's instructions. The primary rat peritoneal macrophages were isolated from the wild type Fisher 344 rats that had been previously injected with 5 mL of Brewer's thioglycolate broth (Sigma-Aldrich). Macrophage purity was directly analyzed by single channel flow cytometry using rat macrophage specific monoclonal antibodies ED1 (AbD Serotec, Raleigh, N.C.), WT.5 (BD Biosciences) and His36 (BD Biosciences). Purity was typically >85%. Macrophages were used in assays immediately upon isolation.
(§2) Cell adhesion assays using K562 WT, murine RAW 264.7 cells and the primary rat macrophages were performed as previously described and used immobilized fibrinogen as the ligand of CD11b/CD18 [49]. […] The remaining adherent cells were fixed using 4% formaldehyde and quantified by imaging microscopy as previously described (22, 63). […]

[2] = system: CD11b/CD18; test: Cell adhesion assay, primary rat macrophages on immobilized fibrinogen; format: cell-based; conditions: vs non-activating Ca2+ and Mg2+
Method: as §1, §2

[3] = system: Human Umbilical Vein Endothelial Cells; test: TUNEL assay, HUVEC co-cultured with LA1-activated neutrophils; format: cell-based; conditions: LA1-mediated adhesion of neutrophils
Description: In support of this argument, neither we nor others studying knock-in animals that express constitutively active mutants of integrins LFA-1 [54, 55] and […]4[…]7 [56] have observed any signs of vascular injury in any experimental model. FIGS. 22A-22E show an absence of apoptosis in co-cultures of LA-1 activated leukocytes and HUVEC cells.

[4] = target: T2, CD11b/CD18 (Homo sapiens, UniProt P11215); test: Cell adhesion assay, K562 WT cells on immobilized fibrinogen; format: cell-based; design: K562 cells stably transfected with plasmid encoding wild-type integrin CD11b/CD18; expressed in transfected cells; conditions: vs basal Ca2+ plus Mg2+ (1 mM each); leukadherins 15 μM, mAbs 20 μg/mL, Mn2+ 1 mM
Method: as §1, §2

[5] = target: T2, CD11b/CD18; test: Immunofluorescence microscopy of CD11b/CD18 clustering on K562 WT cells; format: cell-based; design: K562 cells stably transfected with plasmid encoding wild-type integrin CD11b/CD18; expressed in transfected cells
Method: To visualize changes upon ligand binding, fibrinogen (50 μg/mL) was also added to the cell suspension media in a second set of incubations. The cells were fixed in suspension and incubated with mAb 184, which is specific for CD11b/CD18, followed by Alexa Fluor 488-conjugated goat antibody against mouse Ig (Sigma). Fluorescence images were recorded with a Leica DMI16000 deconvolution microscope using an HCX APO 40×/0.75 DRY objective with a DCF360FX camera and with Leica LAS-AF software. A 3-dimensional representation of CD11b/CD18 fluorescence intensity and the analysis of the number of CD11b/CD18 clusters per cell was performed using ImageJ software as described. Clustering determination was carried out by counting individual fluorescent peaks that were projected from the basal to the apical side of the cell and were at least 50% above the base line levels. The images presented are representative of at least 20 cells analyzed for each condition from at least three independent experiments.
Therefore, to investigate, a combination of confocal microscopy (to study clustering) and western blotting assays (to study intracellular signaling) using K562 WT cells were used. First, CD11b/CD18 cell-surface distribution and macro clustering was studied under various conditions using confocal microscopy. K562 WT cells in suspension were incubated with various agonists, fixed with paraformaldehyde and the surface expressed CD11b/CD18 was fluorescently stained with anti-CD11b/CD18 mAb 1B4. […] The fluorescence images shown are representative of three independent experiments. […] Also shown below each image is a 3D representation of CD11b fluorescence intensity for selected cells, analyzed in ImageJ In FIG. 5B, data shown are mean±SEM from >40 cells per condition and from >3 independent experiments for each condition. ***p<0.0001, ns=not significant.

T1 sequence (P05555 17-1153): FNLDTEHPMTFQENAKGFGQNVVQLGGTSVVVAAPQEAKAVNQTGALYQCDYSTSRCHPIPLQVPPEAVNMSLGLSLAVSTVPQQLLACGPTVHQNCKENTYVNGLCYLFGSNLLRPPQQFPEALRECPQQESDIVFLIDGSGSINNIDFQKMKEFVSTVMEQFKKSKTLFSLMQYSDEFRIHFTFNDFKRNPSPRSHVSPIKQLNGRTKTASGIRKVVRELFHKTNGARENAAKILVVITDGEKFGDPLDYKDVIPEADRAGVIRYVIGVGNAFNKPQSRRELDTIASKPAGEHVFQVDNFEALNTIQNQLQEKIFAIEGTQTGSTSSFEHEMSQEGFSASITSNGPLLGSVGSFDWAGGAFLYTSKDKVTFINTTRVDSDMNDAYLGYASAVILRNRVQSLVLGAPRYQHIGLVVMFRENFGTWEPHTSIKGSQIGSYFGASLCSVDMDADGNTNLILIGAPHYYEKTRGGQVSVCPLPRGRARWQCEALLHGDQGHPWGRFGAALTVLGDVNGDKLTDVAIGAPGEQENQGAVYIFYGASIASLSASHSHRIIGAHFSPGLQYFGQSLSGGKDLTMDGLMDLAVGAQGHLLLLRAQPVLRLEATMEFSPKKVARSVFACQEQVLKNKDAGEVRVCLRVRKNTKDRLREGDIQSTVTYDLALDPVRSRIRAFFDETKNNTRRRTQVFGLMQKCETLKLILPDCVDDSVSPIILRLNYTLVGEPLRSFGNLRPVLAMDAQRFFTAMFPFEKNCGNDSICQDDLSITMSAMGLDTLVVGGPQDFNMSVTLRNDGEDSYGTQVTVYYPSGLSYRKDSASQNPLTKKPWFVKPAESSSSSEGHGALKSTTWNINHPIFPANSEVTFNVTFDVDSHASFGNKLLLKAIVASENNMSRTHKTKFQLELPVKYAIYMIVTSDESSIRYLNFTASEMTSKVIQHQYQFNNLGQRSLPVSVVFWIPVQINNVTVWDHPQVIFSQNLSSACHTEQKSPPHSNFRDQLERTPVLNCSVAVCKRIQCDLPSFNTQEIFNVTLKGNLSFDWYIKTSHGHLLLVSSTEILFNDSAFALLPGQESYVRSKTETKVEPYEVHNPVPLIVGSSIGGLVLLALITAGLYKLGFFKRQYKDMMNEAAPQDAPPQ
T1 sequence (P11835 24-771 partner): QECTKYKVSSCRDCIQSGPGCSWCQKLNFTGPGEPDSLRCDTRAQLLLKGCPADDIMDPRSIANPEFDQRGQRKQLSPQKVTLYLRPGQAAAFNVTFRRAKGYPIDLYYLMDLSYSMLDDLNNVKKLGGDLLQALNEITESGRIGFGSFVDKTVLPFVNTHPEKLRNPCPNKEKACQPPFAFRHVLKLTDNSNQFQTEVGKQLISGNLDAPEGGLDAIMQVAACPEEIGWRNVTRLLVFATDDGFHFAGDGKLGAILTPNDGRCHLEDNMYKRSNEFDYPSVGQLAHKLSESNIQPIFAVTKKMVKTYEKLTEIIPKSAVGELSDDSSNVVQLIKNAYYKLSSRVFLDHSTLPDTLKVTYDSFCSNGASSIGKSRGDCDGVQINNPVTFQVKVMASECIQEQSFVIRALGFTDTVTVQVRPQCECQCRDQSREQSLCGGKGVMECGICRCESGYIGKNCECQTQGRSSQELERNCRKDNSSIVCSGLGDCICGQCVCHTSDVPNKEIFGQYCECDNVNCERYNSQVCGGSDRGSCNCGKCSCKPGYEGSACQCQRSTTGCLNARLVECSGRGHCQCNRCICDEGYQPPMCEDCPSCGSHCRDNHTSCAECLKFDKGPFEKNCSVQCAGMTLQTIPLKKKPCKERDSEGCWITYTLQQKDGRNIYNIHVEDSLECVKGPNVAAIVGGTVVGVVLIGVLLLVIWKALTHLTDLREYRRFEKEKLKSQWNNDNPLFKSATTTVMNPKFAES

O=C(O)c1ccc(-c2ccc(/C=C3\SC(=S)N(Cc4ccccc4)C3=O)o2)cc1 [LA1]
adhesion of RAW 264.7 cells to immobilized fibrinogen [1]: significantly and similarly increased the level of cell adhesion | adhesion of primary rat macrophages to immobilized fibrinogen [2]: significantly enhanced the level of macrophage adhesion | HUVEC apoptosis (TUNEL) [3]: does not increase HUVEC apoptosis | adhesion of K562 WT cells to immobilized fibrinogen [4]: significantly increased | CD11b/CD18 macro clustering on cell surface ([5]; absence of ligand fibrinogen, 45 minutes at 37° C.): did not induce any significant CD11b/CD18 macro clustering | CD11b/CD18 macro clustering on cell surface ([5]; presence of fibrinogen 50 μg/mL): did so in the presence of fibrinogen
